Source: patent US12085575B2, “Compositions and methods for detecting proteinopathies” (BOARD OF SUPERVISORS OF LOUISIANA STATE UNIVERSITY AND …, priority 2011, dated 2024)

Key:
Assay type in all cases: cell-based, human
Mfn2 [1] = assay: MFN2 modification and degradation in HEK293 cells treated with CCCP; conditions: HEK cells, CCCP 10 μM, 24 h
Excerpt: MFN2 is conjugated to SUMO-1/2/3 and ubiquitin, and is degraded in HEK293 cells treated with CCCP. We confirmed CCCP-induced MFN2-SUMO/ubiquitin modification and degradation in “normal” HEK293 cells. […] However, CCCP-mediated decrease in MFN2 was proteasome-dependent (FIG. 37D). Together, our results using A-T and HEK293 cells reveal that MFN2 is SUMOylated in response to CCCP treatment.

Mfn2 [2] = assay: Mfn2 modification and degradation in A-T/LV shRNA cells treated with mitochondrial depolarizing agents
Description: Immunoblotting Analysis of Mitochondrial Proteins—Mitochondria were isolated from A-T/LV control and ISG15 shRNA cells using the Miochondrial Isolation Kit (Thermo Scientific Company, 89874). The Dounce homogenization protocol described by the manufacturer was used to isolate mitochondria from cells. Mitochondrial pellets were resuspended in lysis buffer containing 50 mM Tris pH 7.5 and 4% (v/v) SDS. Samples were homogenized and boiled for 10 min. Lysates containing equal protein were then mixed with 6× Laemmli SDS sample buffer (3× final concentration). Samples were boiled again and mitochondrial proteins were analyzed by SDS-PAGE. Immunoblotting analyses using either anti-ISG15 (raised against human ISG15) (20), anti-ubiquitin (gift from Dr. Arthur Haas, at LSUHSC—New Orleans), or anti-mitofusin 2 (Abcam, ab88569) antibodies were carried out using the ECL Western procedure (Pierce, 34076) and the BioRad VersaDoc Imaging System (BioRad). Immunoblotting Analysis of HA Polyubiquitylated Proteins in Cells: Cells were transfected with HA-ubiquitin using the PolyFect transfection reagent (Qiagen, 301105). Twenty four hours after transfection, mitochondria were isolated as described above. Mitochondrial lysis, SDS-PAGE, and immunoblotting analysis to detect HA-ubiquitin conjugated proteins using anti-HA antibodies were carried out as described above. Immunoblotting Analysis of Mfn2 in Cells: Cells were lysed in lysis buffer containing 50 mM Tris-HCl, pH 7.5, 2% SDS, and protease inhibitor cocktail. Lysates were sonicated, boiled, and cleared by centrifugation. Lysates containing equal protein were then mixed with 6× Laemmli SDS sample buffer (3× final concentration). Samples were boiled again and proteins were separated by 15% SDS-PAGE. Immunoblotting analysis was carried out using anti-Mfn2 antibodies (Abcam) as described above. Intensity of the Mfn2 bands was quantitated using BioRad Quantity One software. Statistical analysis—Statistical analysis was carried out using GraphPad software.
Many outer mitochondrial membrane (OMM) proteins are ubiquitylated and degraded via the 26S proteasome prior to mitophagy in cells treated with the mitochondrial depolarizing agents (28,29). To test whether ISG15 inhibits polyubiquitylation of OMM proteins, we assessed the fate of Mfn2, an OMM protein and proteasome substrate, in A-T/LV-control and A-T/LV-ISG15-silenced cells treated with two different mitochondrial depolarizing agents, valinomycin and carbonylcyanide m-chlorophenylhydrazone (CCCP). Consistent with the literature reports (29,35,36), we observed a ladder of high molecular weight anti-Mfn2 cross-reactive bands above the 86 kDa Mfn2 protein band that is reminiscent of polyubiquitylation, in both ISG15-silenced and ISG15 overexpressing A-T cells (FIGS. 34 A and B, left panels). The endogenous level of these high molecular weight Mfn2 cross-reactive bands was remarkably higher in ISG15-silenced as compared to the ISG15-overexpressing A-T cells in the absence of any drugs (FIGS. 34A and B, first panels, compare lanes 1 and 4). […] In contrast, the level of these Mfn2 cross-reactive high molecular weight bands decreased under the same drug treatment conditions in ISG15-silenced A-T cells (FIGS. 34A and B, first panels, lanes 4-6, and the accompanying bar graph in the second panel for quantitation). […] The bar graphs in FIGS. 34A and B, third panels, show mean values of the ratio between free Mfn2 (86 kDa band) and actin proteins (±SEM) in CCCP-treated A-T/LV-control and ISG15 shRNA cells measured from eight independent experiments, and valinomycin-treated A-T/LV-control and ISG15 shRNA cells measured from three independent experiments respectively.

[3] = system: polyubiquitylated proteins; assay: Camptothecin-induced degradation of polyubiquitylated proteins in A-T cells; conditions: CPT 10 μm, 24 hr
Description: To test the generality of this observation, the anticancer drug camptothecin (CPT), a genotoxic agent (37, 48-50), which is known to sensitize A-T cells (37), like UV, was used to induce degradation of polyubiquitylated proteins in A-T cells. In FIG. 8E, A-T cells were treated with camptothecin (CPT; 10 μm) in the presence or absence of Bafl (1 nm) for 24 hr. Ubiquitin conjugated proteins using anti-ubiquitin antibodies were detected as described herein for FIG. 8A. The experiment was repeated three times.

Compound	conjugation of SUMO-1, SUMO-2/3, and ubiquitin to MFN2 (Mfn2 [1])	degradation of MFN2 (Mfn2 [1]) [%]	free MFN2 protein level (Mfn2 [2]; CCCP-treated ISG15 overexpressing A-T cells)	decrease in the free MFN2 level (Mfn2 [2]; ISG15-silenced A-T cells, CCCP 24 h, cell lysates and immunoprecipitates) [%]	free Mfn2 protein level (Mfn2 [2]; ISG15 overexpressing A-T cells, 24 hr)	degradation of endogenous polyubiquitylated proteins [3]
N#CC(C#N)=NNc1cccc(Cl)c1 [CCCP, carbonylcyanide m-chlorophenylhydrazone]	induces conjugation	20	remained unaffected	20	slightly increased	–
CC[C@@]1(O)C(=O)OCc2c1cc1n(c2=O)Cc2cc3ccccc3nc2-1 [CPT, camptothecin]	–	–	–	–	–	induced degradation
